“Also recorded” adds a separate entry of the source.
What was measured:
soluble tau oligomer = experiment: Modified ELISA (mAb HT7 capture, biotinylated mAb HT7 reporter) for curcumin effect on tau-oligomer levels in CSF; assay type: biochemical, human
Protocol: FIG. 6 is a schematic diagram illustrating an exemplary method and assay that utilizes standard and modified ELISA to detect tau-monomer, tau pT217, soluble tau oligomer, and tau-amyloid-beta 1-42 complex. Formation of tau oligomers was analyzed using two different ELISA methods to provide verified data. The “modified” ELISA uses the same monoclonal antibody for capture and detection. Insoluble aggregates are removed in the ELISA procedure during washing steps. Only soluble aggregates of tau, not monomers, are detected with this ELISA because the detection and reporter antibody recognizes an epitope which is present only once within tau. […]
Modified ELISA to determine tau-oligomer levels in CSF: Tau oligomer level was determined using modified sandwich ELISA where mAb HT7 against tau was used for capture and biotinylated mAb HT7 as the reporter. […]
Sample preparation: A 5 mM stock solution of curcumin was prepared in 100% ethanol. […] The incubated samples were diluted to 500 μL in buffer and analyzed for tau-oligomers by modified ELISA as described in FIG. 6. […]
(§1) Data analysis for Example 11 (FIG. 13) and Example 12 (FIG. 14) was measured as a percent decrease in tau-oligomers, upon incubation with curcumin. […]
(§2) FU=(Average fluorescence of triplicate wells for each sample-average fluorescence of the antibody blank wells). […]

[1] = target: T1, tau oligomers containing tau without c-terminal truncation (Homo sapiens, UniProt P10636); experiment: ELISA with mAb T46 capture and pAb A11 reporter for curcumin effect on tau-oligomer levels in CSF; assay type: biochemical; conditions: same CSF sample from a patient having severe AD; sample preparation as in Example 11
T1 construct: only tau oligomers containing tau without c-terminal truncation would be detected; from tissue; host or cells: cerebrospinal fluid of a severe AD patient (post mortem, New York Brain Bank)
Protocol: Tau oligomer levels based on oligomer conformation was determined using a standard sandwich ELISA where mAb HT7 against tau was used for capture, as mentioned in FIG. 2 (Example 1). After incubation with CSF samples (see FIG. 2 legend) the plates were washed and 100 uL rabbit pAb A11, specific for protein oligomer conformation, was diluted 1000-fold and added to each well. The plate was incubated for one hour at 37° C. and washed. Biotinylated goat anti-rabbit antibody was diluted 10,000-fold in PBST and 50 μL was added to each well. Plates were incubated for 30 min. at 37° C. Detection was done using HRP-neutravidin and QuantaBlu fluorogenic substrate as described for FIG. 2 (Example 1). The results are shown in FIG. 8 (4 severe AD, 5 AD and 3 non-AD CSF samples were tested). Here the assay is specific for tau in association with oligomer conformation and can detect soluble tau oligomers. The combination of a monoclonal antibody against tau with an antibody specific for oligomer conformation is novel. […]
Tau oligomer levels in CSF were determined using antibodies specific for oligomer conformation and tau with intact c-terminus. […]
as §1, §2

T1 sequence (P10636 1-441 isoform P10636-8): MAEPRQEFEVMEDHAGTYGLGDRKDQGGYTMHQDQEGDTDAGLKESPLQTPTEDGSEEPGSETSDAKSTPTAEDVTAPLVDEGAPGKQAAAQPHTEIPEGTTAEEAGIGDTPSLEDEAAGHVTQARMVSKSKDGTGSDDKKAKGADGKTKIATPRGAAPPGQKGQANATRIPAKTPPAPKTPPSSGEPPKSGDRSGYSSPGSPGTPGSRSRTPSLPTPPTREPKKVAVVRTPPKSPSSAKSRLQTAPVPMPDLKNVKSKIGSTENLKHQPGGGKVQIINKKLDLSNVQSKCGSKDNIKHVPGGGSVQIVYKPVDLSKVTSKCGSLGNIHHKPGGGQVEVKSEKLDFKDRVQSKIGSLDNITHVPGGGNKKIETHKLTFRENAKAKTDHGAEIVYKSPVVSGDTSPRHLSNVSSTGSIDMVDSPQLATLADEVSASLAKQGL

COc1cc(/C=C/C(=O)CC(=O)/C=C/c2ccc(O)c(OC)c2)ccc1O [curcumin]
percent decrease in tau-oligomers upon incubation with curcumin (FIG. 13) (soluble tau oligomer; CSF from three different severe AD patients, 5 uL of 20 uM curcumin in total volume of 100 uL, one hour at 37° C.): disruption of soluble tau oligomer; also recorded: reduction of tau oligomer levels
percent decrease in tau-oligomers upon incubation with curcumin (FIG. 14, modified ELISA format) (soluble tau oligomer; one CSF sample from a patient having severe AD, sample preparation as in Example 11): reduction of tau oligomer levels
percent decrease in tau-oligomers upon incubation with curcumin (FIG. 14, mAb T46 / pAb A11 format) [1]: reduction of tau oligomer levels
